According to patent publication US7374944B2, “Device and bioanalytical method utilizing asymmetric biofunctionalized membrane” (Purdue Research Foundation, priority 2001, dated 2008):

Key:
[1] = Impedance measurements of supported bolalipid membranes on Au electrodes
Procedure: The effect of GA surface density on supported membrane impedance was determined using electrodes that had been coated with supported bolalipids by pretreatment with 2 prior to immersion for 24 hours into sonicated 1-GA vesicles containing varying amounts of GA. The 1-GA vesicle dispersions were prepared by sonicating dry 1-GA films in water (nominal GA:bolalipid molar ratios ranging from 1:500-1:50; 2 mM total lipid concentration). […] This observation is consistent with ^23Na NMR ion flux measurements made previously in our laboratory for gramicidin-containing 1 vesicles.
The effects of gramicidin loading on supported bolalipid membrane electrode impedance was further investigated in a sequential deposition experiment (FIG. 10). Adsorption of 2 onto Au electrodes for 1 hour to give partial surface coverage produced significant increases in impedance. Immersion of these pretreated electrodes into bolalipid vesicle solutions where gramicidin was either absent or present (i.e. 1 and 1-GA vesicles, respectively) produced membrane coated electrodes that had substantially different impedance characteristics in 10^−1-10^2 Hz frequency range. […]

[2] = Capacitance and single channel measurements of C20 bolalipid membranes; details: C20 bolalipid monolayer

gramicidin
impedance of 2-treated electrode after immersion in 1-GA membrane solution ([1]; 1:100 molar ratio GA:1, 24 hours, compared with 2 or 2-1 coatings): observed impedances were lower
effect of GA surface density on supported membrane impedance ([1]; GA:bolalipid molar ratios 1:500-1:50, 1-10^3 Hz range): impedance decreases with increasing GA concentration
ion flux across the membrane [2]: resulted in ion flux across the membrane
